Reference: ChEMBL document CHEMBL1201862, “PubChem BioAssay data set” (2004)
Calls of active or inactive are those of the source.

Key:
[1] = biological target: T1, Sphingosine 1-phosphate receptor 2 (Homo sapiens, UniProt O95136); assay: Dose Response Cell Based Assay for Agonists of the S1P2 Receptor. [Related pubchem assays: 729, 736, 843 ]; assay type: functional
[2] = Late stage counterscreen results from the probe development effort to identify activators of signal transducer and activator of transcription 1 (STAT1): luminescence-based cell-based dose response assay to identify cytotoxic compounds.; assay type: functional
[3] = blockers of bursicon-stimulated LGR2 cAMP reporter – cell-based, HEK293, CRE-luciferase reporter, cherry pick, set 2, dose response (AID 743343); assay type: functional;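 also: transfected cells were stimulated with diluted bursicon conditioned medium after compound addition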
[4] = blockade of melanocortin 4 receptor signaling – cell-based, plate reader, cherry pick, counter-screen for LGR2 antagonist project, dose response (AID 743444); assay type: functional;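 also: transfected HEK 293 cells stimulated with alpha-MSH peptide; potency of inhibitors of the alpha-MSH evoked signal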
[5] = biological target: E3 ubiquitin-protein ligase Mdm2 (Homo sapiens, UniProt Q00987); assay: MDM2-luc reporter signal enhancers, multi-concentration potency testing, MDM2 ubiquitin-protein ligase inhibitor program, whole-cell format, luminescence detection, 384-well microplate (AID 1394); assay type: functional;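 also: MDM2 E3 inhibitors raise luminescence so EC50 is for signal enhancement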
[6] = biological target: T1, Sphingosine 1-phosphate receptor 2; assay: Dose Response Cell Based Assay for Antagonists of the S1P2 Receptor. [Related pubchem assays: 856, 736 ]; assay type: functional
[7] = biological target: T2, Aminopeptidase N (Plasmodium falciparum FcB1/Columbia, UniProt O96935); assay: malaria alanyl aminopeptidase activity blockers – biochemical, fluorogenic H-Leu-NHMec substrate, 1536-well (AID 1445); parameters: species or system Plasmodium falciparum 3D7, 3D7
T2 sequence (O96935 whole entry): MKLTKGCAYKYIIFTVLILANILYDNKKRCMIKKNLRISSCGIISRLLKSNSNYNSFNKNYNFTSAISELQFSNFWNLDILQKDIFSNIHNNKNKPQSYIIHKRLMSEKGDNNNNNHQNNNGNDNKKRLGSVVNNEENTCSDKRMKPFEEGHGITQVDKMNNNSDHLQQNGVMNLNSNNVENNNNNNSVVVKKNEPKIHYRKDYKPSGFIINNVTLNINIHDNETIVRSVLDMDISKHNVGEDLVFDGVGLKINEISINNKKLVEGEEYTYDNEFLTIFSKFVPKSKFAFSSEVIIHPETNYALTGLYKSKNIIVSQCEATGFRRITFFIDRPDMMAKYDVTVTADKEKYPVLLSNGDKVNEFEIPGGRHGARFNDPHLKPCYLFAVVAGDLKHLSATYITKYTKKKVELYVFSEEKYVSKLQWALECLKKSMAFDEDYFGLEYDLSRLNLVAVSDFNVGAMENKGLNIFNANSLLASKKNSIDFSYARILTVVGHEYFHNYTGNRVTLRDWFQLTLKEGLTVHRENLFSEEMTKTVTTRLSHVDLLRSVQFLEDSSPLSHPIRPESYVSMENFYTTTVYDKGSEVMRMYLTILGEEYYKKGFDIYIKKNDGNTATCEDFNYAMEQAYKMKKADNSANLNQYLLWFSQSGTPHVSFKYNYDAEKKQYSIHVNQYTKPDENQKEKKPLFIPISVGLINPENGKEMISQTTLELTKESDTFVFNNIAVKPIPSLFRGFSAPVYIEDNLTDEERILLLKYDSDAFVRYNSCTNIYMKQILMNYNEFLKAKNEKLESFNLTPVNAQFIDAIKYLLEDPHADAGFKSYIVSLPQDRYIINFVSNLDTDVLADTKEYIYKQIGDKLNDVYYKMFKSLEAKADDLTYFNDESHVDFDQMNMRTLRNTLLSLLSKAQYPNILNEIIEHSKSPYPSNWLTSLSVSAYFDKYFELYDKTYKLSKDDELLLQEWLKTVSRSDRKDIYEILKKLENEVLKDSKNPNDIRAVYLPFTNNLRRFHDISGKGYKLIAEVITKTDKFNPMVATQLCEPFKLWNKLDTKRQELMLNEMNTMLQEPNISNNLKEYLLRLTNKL

[8] = biological target: Bifunctional protein GlmU (Mycobacterium tuberculosis, UniProt P9WMN3); assay: Inhibitors of Mycobacterial Glucosamine-1-phosphate acetyl transferase (GlmU). Secondary screen.; parameters: species or system Mycobacterium tuberculosis H37Rv
[9] = biological target: NADPH oxidase 1 (Homo sapiens, UniProt Q9Y5S8); assay: Late-stage luminescence-based cell-based dose response assay to identify inhibitors of NADPH oxidase 1 (NOX1): Synthesized analogs 2.; assay type: functional
[10] = biological target: Cytochrome P450 2C19 (Homo sapiens, UniProt P33261); assay: qHTS Assay for Inhibitors and Substrates of Cytochrome P450 2C19. [Related pubchem assays: 410 ]; assay type: ADME; settings: read-out: Potency
[11] = biological target: Cytochrome P450 2C9 (Homo sapiens, UniProt P11712); settings: Potency
[12] = NIH-3T3 fibroblast cytotoxicity, dose response, cytotoxicity control, cell-based, fluorescence, Alamar Blue, secondary assay (AID 2327); assay type: functional;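 also: NIH-3T3 mouse fibroblasts cultured with fluconazole at 8 µg/mL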
[13] = Luminescence Cell-Based Dose Response to Identify Activators of 5'UTR Stem-Loop Driven Prion Protein mRNA Translation in H4-C Neuroglioblastoma Cells. [Related pubchem assays: 1829 (Project Summary), 1814 (Primary HTS)]; assay type: functional
[14] = biological target: Photoreceptor-specific nuclear receptor (Homo sapiens, UniProt Q9Y5X4); assay type: functional;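 also: potency for compounds that break the NR2E3 corepressor complex and count as activators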
[15] = Luminescence Cell-Based Dose Response HTS to Identify Activators of Luciferase Translation or Activity in H4 […] Cells. [Related pubchem assays: 1829 (Project Summary), 1814 (Primary HTS)]; assay type: functional
[16] = fluconazole-exposed Candida albicans growth modulators – fluorescence, retest, confirmation (AID 2467); assay type: functional, cell-based
[17] = Luminescence Cell-Based Dose Response to Identify Activators of Luciferase Translation or Activity in H4-C Neuroglioblastoma Cells. [Related pubchem assays: 1829 (Project Summary), 1814 (Primary HTS)]; assay type: functional
[18] = biological target: Estrogen receptor beta (Homo sapiens, UniProt Q92731);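 also: recombinant ER-beta bound to coactivator SRC1 peptide in presence of estradiol agonist; inhibitors block coactivator peptide binding and lower the FRET signal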
[19] = biological target: Voltage-gated inwardly rectifying potassium channel KCNH2 (Homo sapiens, UniProt Q12809); assay: concentration-dependent hERG rescue from blockers – cell-based, thallium flux, dose response (AID 2121); assay type: ADME
[20] = biological target: Peroxisome proliferator-activated receptor gamma/Nuclear receptor corepressor 2 (Homo sapiens, UniProt P37231+Q9Y618); assay type: functional
[21] = Luminescence Cell-Based Dose Confirmation to Identify Activators of 5'UTR Stem-Loop Driven Alpha-Synuclein mRNA Translation in H4 Neuroglioblastoma Cells. [Related pubchem assays: 1829 (Project Summary), 1814 (Primary HTS)]; assay type: functional
[22] = biological target: T3, Polyadenylate-binding protein 1 (Homo sapiens, UniProt P11940); assay: MLLE binding blockers, Cy5 peptide tracer – biochemical, fluorescence polarization, Cy5-PAM2 peptide, secondary, miRNA deadenylation inhibitor project, dose response (AID 602260); assay type: functional; settings: read-out: IC50_Mean
[23] = biological target: T3, Polyadenylate-binding protein 1; assay: MLLE domain peptide-binding blockers, IC50 – biochemical, fluorescence polarization, FITC-PAM2 peptide, dose response (AID 602259); assay type: functional; settings: read-out: IC50_Mean
[24] = Trypanosoma cruzi growth suppression in host cells – NIH3T3 host cells, beta-gal luminescence, confirmation (AID 2044); assay type: functional, cell-based;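 also: intracellular parasites grown in NIH/3T3 mouse fibroblasts as host cells; luminescent beta-galactosidase reporter signal from transgenic T. cruzi replicating inside host cells; inhibitors lower the luminescence signal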
[25] = biological target: Aryl hydrocarbon receptor (Homo sapiens, UniProt P35869); assay: Luminescence-based cell-based high throughput dose response assay for activators of the Aryl Hydrocarbon Receptor (AHR). [Related pubchem assays: 2796 (Primary screen (AHR activators in singlicate)), 2845 (Confirmation screen (AHR activators in triplicate)), 434939 (Counterscreen (PXR activators in triplicate)), 2804 (Summary (AHR activators))]; assay type: ADME
[26] = NIH3T3 cell viability loss – ATP luminescence, mouse fibroblasts, counter-screen, dose response (AID 2010); assay type: functional, cell-based;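 also: cells exposed to compound for about 90 hours before reading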
[27] = THP-1 cell cytotoxicity, dose response, cytotoxicity control for non-replicating M. tuberculosis project (AID 489025); assay type: functional
[28] = HepG2 cell cytotoxicity, dose response, cytotoxicity control for non-replicating M. tuberculosis project (AID 489018); assay type: functional; settings: Mycobacterium tuberculosis
[29] = Vero E6 cell cytotoxicity, dose response, cytotoxicity control for non-replicating M. tuberculosis project, secondary assay (AID 492998); assay type: functional, VeroE6; settings: Vero C1008
[30] = cells; assay type: functional

T3 sequence (P11940 whole entry, the tested form may be a part): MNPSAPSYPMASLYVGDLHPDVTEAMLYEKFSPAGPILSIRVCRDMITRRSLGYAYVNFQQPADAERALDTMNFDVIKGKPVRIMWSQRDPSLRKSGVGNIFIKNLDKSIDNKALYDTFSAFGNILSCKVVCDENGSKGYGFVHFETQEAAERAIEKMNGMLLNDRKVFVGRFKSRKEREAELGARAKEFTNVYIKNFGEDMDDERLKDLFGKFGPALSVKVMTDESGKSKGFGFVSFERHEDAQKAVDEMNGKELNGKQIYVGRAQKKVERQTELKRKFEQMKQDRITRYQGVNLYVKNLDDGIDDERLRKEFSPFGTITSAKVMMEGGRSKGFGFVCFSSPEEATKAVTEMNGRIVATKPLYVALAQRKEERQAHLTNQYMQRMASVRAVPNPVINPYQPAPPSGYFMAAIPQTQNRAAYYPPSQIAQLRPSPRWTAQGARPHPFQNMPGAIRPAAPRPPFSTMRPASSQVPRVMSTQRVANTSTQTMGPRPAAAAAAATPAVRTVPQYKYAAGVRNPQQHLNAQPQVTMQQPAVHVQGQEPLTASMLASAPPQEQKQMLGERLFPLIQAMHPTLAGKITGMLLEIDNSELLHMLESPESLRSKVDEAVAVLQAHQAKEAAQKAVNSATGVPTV
T1 sequence (O95136 whole entry): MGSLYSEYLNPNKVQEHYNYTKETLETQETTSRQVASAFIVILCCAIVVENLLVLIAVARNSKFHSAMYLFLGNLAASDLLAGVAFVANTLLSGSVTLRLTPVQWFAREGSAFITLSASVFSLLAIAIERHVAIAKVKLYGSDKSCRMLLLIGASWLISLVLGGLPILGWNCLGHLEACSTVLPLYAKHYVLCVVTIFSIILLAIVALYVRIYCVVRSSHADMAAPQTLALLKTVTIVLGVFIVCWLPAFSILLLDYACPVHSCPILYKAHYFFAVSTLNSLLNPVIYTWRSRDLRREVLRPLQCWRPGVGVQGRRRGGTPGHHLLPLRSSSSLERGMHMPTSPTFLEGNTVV
Sequence of Aryl hydrocarbon receptor (P35869 whole entry): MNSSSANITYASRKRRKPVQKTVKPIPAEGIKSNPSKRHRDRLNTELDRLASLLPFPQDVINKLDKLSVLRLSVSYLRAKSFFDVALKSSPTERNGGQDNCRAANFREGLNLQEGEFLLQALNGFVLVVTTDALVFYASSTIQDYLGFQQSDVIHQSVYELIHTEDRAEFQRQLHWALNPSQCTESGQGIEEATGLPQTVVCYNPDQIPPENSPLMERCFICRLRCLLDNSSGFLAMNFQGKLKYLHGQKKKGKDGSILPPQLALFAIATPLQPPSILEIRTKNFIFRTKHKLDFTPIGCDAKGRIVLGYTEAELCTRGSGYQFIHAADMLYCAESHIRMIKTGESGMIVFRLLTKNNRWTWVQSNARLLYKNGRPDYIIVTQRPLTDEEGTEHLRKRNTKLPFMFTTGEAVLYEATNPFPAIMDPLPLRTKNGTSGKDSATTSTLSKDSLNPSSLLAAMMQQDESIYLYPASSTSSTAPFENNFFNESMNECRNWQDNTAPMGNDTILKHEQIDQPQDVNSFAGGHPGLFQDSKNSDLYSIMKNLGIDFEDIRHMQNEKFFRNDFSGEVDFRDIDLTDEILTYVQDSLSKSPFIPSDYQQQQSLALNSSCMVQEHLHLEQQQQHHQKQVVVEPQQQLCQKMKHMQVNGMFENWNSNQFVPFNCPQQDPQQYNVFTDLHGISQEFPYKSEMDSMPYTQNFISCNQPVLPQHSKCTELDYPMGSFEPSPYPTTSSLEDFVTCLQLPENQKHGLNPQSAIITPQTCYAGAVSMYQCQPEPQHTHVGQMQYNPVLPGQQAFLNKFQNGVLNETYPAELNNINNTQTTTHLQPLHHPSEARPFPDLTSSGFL
Sequence of Cytochrome P450 2C19 (P33261 whole entry): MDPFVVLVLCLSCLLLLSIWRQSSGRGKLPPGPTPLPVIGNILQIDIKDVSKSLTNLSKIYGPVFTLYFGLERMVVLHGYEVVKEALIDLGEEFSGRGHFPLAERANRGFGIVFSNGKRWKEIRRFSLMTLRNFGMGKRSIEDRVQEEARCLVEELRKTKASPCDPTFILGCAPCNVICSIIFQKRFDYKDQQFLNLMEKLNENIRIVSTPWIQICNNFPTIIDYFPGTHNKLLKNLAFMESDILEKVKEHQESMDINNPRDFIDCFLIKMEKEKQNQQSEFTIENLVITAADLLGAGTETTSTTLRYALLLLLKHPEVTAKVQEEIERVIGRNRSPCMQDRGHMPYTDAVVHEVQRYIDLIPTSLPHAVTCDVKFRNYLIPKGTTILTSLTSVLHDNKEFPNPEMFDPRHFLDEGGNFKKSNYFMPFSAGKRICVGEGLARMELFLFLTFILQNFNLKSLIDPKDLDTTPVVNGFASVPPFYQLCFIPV
Sequence of Photoreceptor-specific nuclear receptor (Q9Y5X4 whole entry): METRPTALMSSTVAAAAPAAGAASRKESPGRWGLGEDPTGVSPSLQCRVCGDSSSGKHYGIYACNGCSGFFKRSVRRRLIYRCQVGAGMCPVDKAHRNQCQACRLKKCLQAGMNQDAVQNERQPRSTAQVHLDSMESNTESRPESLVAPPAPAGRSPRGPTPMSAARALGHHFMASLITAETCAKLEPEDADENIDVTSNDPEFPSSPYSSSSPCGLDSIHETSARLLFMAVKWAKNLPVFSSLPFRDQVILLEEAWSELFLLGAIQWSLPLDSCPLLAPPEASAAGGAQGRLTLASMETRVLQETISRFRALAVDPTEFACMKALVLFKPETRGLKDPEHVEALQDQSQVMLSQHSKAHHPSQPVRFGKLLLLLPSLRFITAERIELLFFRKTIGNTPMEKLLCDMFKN
Sequence of Cytochrome P450 2C9 (P11712 whole entry): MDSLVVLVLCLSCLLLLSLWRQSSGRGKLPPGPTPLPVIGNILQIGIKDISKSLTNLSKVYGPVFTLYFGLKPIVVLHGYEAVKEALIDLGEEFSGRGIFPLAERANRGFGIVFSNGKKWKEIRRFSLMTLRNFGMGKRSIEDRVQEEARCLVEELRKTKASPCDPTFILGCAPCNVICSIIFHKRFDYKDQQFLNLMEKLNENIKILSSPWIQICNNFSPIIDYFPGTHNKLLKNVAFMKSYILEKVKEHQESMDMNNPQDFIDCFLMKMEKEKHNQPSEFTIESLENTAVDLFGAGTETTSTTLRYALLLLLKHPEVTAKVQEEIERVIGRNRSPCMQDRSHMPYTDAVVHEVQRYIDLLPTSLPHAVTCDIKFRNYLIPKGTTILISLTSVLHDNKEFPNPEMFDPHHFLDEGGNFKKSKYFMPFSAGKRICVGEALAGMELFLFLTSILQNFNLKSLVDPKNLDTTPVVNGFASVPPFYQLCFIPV
Sequence of Estrogen receptor beta (Q92731 whole entry): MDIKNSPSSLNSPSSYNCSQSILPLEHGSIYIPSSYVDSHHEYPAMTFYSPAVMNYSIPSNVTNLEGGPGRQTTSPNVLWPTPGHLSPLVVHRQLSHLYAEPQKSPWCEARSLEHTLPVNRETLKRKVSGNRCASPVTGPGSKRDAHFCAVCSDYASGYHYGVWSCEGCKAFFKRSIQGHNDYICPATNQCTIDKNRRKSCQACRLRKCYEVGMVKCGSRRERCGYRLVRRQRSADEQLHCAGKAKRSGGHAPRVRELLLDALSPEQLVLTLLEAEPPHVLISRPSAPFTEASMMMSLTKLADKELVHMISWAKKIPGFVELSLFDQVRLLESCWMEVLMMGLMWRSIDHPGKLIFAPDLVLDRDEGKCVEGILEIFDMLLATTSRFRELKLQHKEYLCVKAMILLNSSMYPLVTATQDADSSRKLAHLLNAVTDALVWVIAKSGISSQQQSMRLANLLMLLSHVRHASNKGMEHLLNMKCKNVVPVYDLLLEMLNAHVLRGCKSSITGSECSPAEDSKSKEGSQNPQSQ
Sequence of NADPH oxidase 1 (Q9Y5S8 whole entry): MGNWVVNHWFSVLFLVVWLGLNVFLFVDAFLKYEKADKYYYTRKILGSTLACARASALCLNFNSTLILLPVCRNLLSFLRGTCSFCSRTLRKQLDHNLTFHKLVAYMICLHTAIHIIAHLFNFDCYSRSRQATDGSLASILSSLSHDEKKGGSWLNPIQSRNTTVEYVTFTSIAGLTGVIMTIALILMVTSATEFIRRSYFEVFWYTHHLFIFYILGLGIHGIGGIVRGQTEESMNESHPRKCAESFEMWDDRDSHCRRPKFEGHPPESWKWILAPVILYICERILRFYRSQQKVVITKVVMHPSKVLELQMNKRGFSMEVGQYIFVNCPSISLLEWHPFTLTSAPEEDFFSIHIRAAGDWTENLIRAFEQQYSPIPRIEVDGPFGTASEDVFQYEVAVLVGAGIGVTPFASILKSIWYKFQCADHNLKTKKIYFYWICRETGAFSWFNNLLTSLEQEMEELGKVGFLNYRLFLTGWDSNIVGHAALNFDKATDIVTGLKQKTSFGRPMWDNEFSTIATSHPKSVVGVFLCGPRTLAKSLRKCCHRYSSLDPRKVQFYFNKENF
Sequence of Bifunctional protein GlmU (P9WMN3 whole entry): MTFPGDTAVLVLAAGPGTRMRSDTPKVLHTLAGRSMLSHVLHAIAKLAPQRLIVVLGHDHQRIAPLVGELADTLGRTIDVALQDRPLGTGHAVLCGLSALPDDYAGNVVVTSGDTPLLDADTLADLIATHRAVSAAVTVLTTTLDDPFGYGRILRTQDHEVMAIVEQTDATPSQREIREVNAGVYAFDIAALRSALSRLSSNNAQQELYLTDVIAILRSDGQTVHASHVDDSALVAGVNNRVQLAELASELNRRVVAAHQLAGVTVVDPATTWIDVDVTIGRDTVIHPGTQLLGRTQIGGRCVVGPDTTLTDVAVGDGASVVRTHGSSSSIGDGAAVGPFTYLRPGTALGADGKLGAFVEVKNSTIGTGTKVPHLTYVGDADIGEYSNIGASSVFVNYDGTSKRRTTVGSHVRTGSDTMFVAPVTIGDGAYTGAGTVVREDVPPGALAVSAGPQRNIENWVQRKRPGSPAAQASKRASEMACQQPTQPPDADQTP

For `Oc1cccc(C(=S)N2CCN(Cc3ccccc3)CC2)c1`, which EC50 [1] is on record?
The EC50 was > 50 µM (not active).

Which IC50 [2] does the source give for `COc1ccc(-c2cc(C)nc3c(-c4ccccc4)cnn23)cc1` here?
Its IC50 is > 55.7 µM (not active).

What about the AC50 [3] of the same compound?
Its AC50 is 15.9 µM (active).

What about the AC50 [4] of the same compound?
Its AC50 is 20.1 µM (active).

For `CC(C)Oc1ccc(C(=O)NC(=S)N2CCOCC2)cc1`, which EC50 [5] is on record?
The EC50 was 25 µM (not active).

For `CCOC(=O)C1C(=O)CC(C)(O)C(C(=O)OCC)C1c1ccccc1` (stereo not given), which IC50 [6] is on record?
The IC50 was > 50 µM (not active).

What does the source list for `O=C(CCCN1C(=O)/C(=C/c2ccco2)SC1=S)Nc1ccccc1C(=O)O`?
IC50 [7]: 102 µM (active); IC50 [8]: 86 µM (active)

With `CC(=O)c1ccc2c(c1)N(C(=O)Nc1ccccc1)c1ccccc1S2` as the compound, how does the IC50 [9] read?
The IC50 was 1.56 µM (active).

Which AC50 [10] does the source give for `CC(C)C[C@@H](CC(=O)N[C@@H](CCCN)CC(=O)N[C@@H]1CCCC[C@H]1C(=O)N[C@H](CC(=O)N[C@@H](CCC(=O)O)CC(=O)O)Cc1ccccc1)NC(=O)[C@@H]1CCCC[C@H]1N` here?
Its AC50 is 39.8 µM (inconclusive).

What about the AC50 [11] of the same compound?
The AC50 was 3.98 µM (inconclusive).

Which results are given for `Cc1ccc(C(=O)Nc2nc3ccccc3c(=O)s2)cc1`?
EC50 [12]: > 160 µM (inactive); EC50 [13]: 0.311 µM (active); IC50 [14]: > 39.8 µM (not active); EC50 [15]: < 0.1 µM (inconclusive); EC50 [16]: 10.2 µM (active); EC50 [17]: 0.303 µM (active); IC50 [18]: > 50 µM (not active); EC50 [19]: 2.74 µM (active); IC50 [20]: 2.71 µM (active); EC50 [21]: 0.295 µM (active); IC50 [22]: > 66 µM (inactive); IC50 [23]: > 66 µM (inactive)

What does the source list for `COc1ccc(/C=N/Nc2cc(C)nc3ccccc23)cc1`?
EC50 [24]: 2.35 µM (active); EC50 [25]: > 1.13 µM (active); EC50 [26]: 11.2 µM (active); CC50 [27]: 12.1 µM (active); CC50 [28]: 12.5 µM (active); CC50 [29]: 11 µM (active); IC50 [30]: 11.1 µM (active)
